These results are taken from publication PMC2728345 (Toxicology and applied pharmacology, 2009).

Data set [1] concerns the target T1, human PXR (Homo sapiens, UniProt O75469).
T1 sequence (O75469 1-434): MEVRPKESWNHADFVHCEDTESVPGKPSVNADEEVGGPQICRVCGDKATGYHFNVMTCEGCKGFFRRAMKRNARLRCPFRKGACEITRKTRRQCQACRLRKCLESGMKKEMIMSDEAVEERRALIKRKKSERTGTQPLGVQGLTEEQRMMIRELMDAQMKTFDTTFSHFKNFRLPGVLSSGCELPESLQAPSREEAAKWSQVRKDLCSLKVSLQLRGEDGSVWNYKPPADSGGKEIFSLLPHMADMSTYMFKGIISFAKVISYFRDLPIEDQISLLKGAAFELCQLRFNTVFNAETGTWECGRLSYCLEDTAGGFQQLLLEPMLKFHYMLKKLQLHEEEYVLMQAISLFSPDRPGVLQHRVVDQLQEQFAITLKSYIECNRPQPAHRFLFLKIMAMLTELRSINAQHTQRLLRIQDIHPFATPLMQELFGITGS
Kind of data set: Activation of human PXR in hPXR-HRE cells transfected with HCE1, HCE2 or vector. Conditions: 10 µM; for effect of carboxylesterase cotransfection on PXR activation: hPXR-HRE cells transfected with HCE1 or HCE2 vs vector; for decrease in PXR activation, HCE1 versus HCE2 cotransfection: hPXR-HRE cells.

Another data set deals with T2, carboxylesterase HCE1 (Homo sapiens, UniProt P23141).
T2 sequence (P23141 18-567): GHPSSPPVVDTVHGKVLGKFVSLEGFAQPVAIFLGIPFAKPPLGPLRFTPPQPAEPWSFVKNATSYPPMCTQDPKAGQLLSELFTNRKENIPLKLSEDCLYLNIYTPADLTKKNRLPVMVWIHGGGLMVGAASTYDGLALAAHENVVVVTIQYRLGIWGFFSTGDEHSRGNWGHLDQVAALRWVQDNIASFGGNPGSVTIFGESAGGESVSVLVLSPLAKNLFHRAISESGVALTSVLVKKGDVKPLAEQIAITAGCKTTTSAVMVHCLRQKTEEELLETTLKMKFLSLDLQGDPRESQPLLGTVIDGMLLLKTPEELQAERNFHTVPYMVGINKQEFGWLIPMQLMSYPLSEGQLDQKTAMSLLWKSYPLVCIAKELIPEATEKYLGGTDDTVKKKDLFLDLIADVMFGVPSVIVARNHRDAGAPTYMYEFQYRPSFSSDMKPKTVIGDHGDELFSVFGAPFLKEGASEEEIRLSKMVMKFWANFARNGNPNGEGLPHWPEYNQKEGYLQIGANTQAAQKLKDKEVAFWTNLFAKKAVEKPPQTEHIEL
Kind of data set: Hydrolysis of pyrethroids by recombinant HCE1. The class given is in vitro ADME. To be noted: recombinant HCE1 vs HCE2 lysates, Tris-HCl pH 7.4.

A further data set has as its system CYP3A4. Kind of data set: CYP3A4 expression in human primary hepatocytes. To be noted: 10 µM, 24 h.
The conditions of data set [2]: 50 µg protein, pyrethroid 200 µM mixed with equal volume, Tris-HCl pH 7.4, 37°C.
For the next data set, the target named is T3, human PXR variant L412I (Homo sapiens, UniProt O75469, L412I).
T3 sequence (O75469 1-434 L412I): T1 sequence (O75469 1-434) with L412I
Conditions: HepG2 cotransfection, 10 µM, 24 h.

For data set [3], the target named is T1, human PXR. Kind of data set: Activation of human PXR in stable line hPXR-HRE. To be noted: 10 µM, 24 h, ratio over DMSO.
In the next data set the test system is HCE2. Kind of data set: HCE2 expression in human primary hepatocytes. To be noted: 10 µM, 24 h. The data set is classed as cell-based.
In data set [4] the target is T4, human PXR variant S208F (Homo sapiens, UniProt O75469, S208F).
T4 sequence (O75469 1-434 S208F): T1 sequence (O75469 1-434) with S208F
Conditions: HepG2 cotransfection, 10 µM, 24 h; words: compared with wild-type PXR.

A further data set relates to rats or mice. Conditions: in vivo, po; cited from earlier work.
Data set [5] deals with T5, carboxylesterase HCE2 (Homo sapiens, UniProt O00748). Briefly: Hydrolysis of pyrethroids by recombinant HCE2. The data set is classed as in vitro ADME. Conditions: recombinant HCE2 vs HCE1 lysates, Tris-HCl pH 7.4.
T5 sequence (O00748 27-559): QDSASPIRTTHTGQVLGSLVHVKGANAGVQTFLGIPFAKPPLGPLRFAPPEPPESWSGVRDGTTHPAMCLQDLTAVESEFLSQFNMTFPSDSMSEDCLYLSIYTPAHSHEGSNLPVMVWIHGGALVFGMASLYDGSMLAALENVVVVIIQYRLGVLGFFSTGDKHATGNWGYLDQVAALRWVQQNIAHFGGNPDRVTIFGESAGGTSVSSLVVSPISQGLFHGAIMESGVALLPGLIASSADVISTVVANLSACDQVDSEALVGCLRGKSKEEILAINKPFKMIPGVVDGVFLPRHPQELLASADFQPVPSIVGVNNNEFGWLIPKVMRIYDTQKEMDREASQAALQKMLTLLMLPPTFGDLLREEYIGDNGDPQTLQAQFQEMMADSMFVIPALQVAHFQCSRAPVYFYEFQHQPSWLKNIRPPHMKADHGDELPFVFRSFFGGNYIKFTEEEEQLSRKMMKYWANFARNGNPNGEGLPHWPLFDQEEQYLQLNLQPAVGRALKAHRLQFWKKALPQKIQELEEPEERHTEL
Data set [6] has as its target T4, human PXR variant S208F.
Data set [7] concerns the target T5, carboxylesterase HCE2. To be noted: Tris-HCl buffer pH 8.0; ref Nishi et al. (2006); cited from earlier work.

In general, LD50 refers to the dose at which mortality reaches 50%.

Substitutions are numbered along the chain they refer to. Entries after “also recorded” stand apart in the source; their conditions may differ. Like-named read-outs stand apart in the source and are kept apart here.

As for `CC1(C)[C@H](C(=O)O[C@H](C#N)c2cccc(Oc3ccccc3)c2)[C@@H]1/C=C(\Cl)C(F)(F)F` (racemic) [lambda-Cyhalothrin], at human PXR [1], the “effect of carboxylesterase cotransfection on PXR activation” value is “markedly decreased” and the “decrease in PXR activation, HCE1 versus HCE2 cotransfection” value is reported as “much more decreases”. For the same compound, the “preference for hydrolysis by HCE1 over HCE2 (words)” value on carboxylesterase HCE1 is recorded as “HCE1 preferably hydrolyzed; also recorded: much more active than HCE2”. The “CYP3A4 protein (Western blotting)” value in the data set with CYP3A4 is reported as “significant increase”. Further, in [2], the “hydrolysis by pooled human liver microsomes (rate group / extent, in words)” value (shortened to “hydrolysis … (rate group / extent, in words)”) is “moderate rate”. In addition, the “activation of PXR variant L412I compared with wild-type PXR” value on human PXR variant L412I is given as “less extent than the wild-type PXR”. For the same compound, the “activation of human PXR” value on human PXR [3] was “stronger activator of human PXR”. For the same compound, the “HCE2 protein (Western blotting)” value with HCE2 is listed as “but not HCE1 or HCE2 protein”. Moreover, at human PXR variant S208F [4], the “activation of PXR variant S208F” value is reported as “no differences”. Also, in the data set with rats or mice, the median lethal dose (LD50) was 56 mg/kg.
As for `CC1(C)C(C=C(Cl)Cl)C1C(=O)OC(C#N)c1ccc(F)c(Oc2ccccc2)c1` (stereo not shown) [Baythroid], on carboxylesterase HCE2 [5], the “preference for hydrolysis by HCE2 over HCE1” value was “HCE2 preferably hydrolyzed”. Further, the “hydrolysis … (rate group / extent, in words)” value in [2] is “moderate rate”. Also, at human PXR variant S208F [6], the “activation of PXR variant S208F” value was determined as 10.6 fold.
As to `CC1(C)[C@H](C(=O)O[C@H](C#N)c2cccc(Oc3ccccc3)c2)[C@@H]1C=C(Br)Br` [Deltamethrin], on human PXR [1], the “effect of carboxylesterase cotransfection on PXR activation” value is on record as “markedly decreased” and the “decrease in PXR activation, HCE1 versus HCE2 cotransfection” value is given as “much more decreases”. Besides, at carboxylesterase HCE1, the “preference for hydrolysis by HCE1 over HCE2 (words)” value is on record as “much more active than HCE2; also recorded: preferably hydrolyzed by HCE1”. Moreover, the “hydrolysis … (rate group / extent, in words)” value in data set [2] is on record as “high rate”. Moreover, the “selective hydrolysis HCE2 vs HCE1 (literature)” value at carboxylesterase HCE2 [7] is reported as “better substrate of HCE2”. The LD50 in the data set on rats or mice is on record as 535 mg/kg.
